# Results from patent US20100197962A1 (priority 2005, published 2010).
# Several values for one entry are separate records, joined by “and”; a condition that tells them apart may be missing. Equal entries are not always repeated.
# Key:
# [1] = tested on: locomotor hyperactivity induced by cocaine and morphine; experiment: Locomotor hyperactivity (hypermotility) induced by cocaine and morphine, Videotrack total distance; type: in vivo, rats; settings: for effect on the spontaneous motility of the animal: alone, neboglamine 30 mg/kg, glycine 300 mg/kg i.p.
# Method: The motor activity was measured with a video camera and recorded using the Videotrack 512 system as described by Garofalo (J. Pharm. Pharmacol. 48: 1290-1297, 1996).
# The locomotor activity was recorded for 15 minutes and the total distance covered (in cm) by the animal was recorded by the computer connected to the video camera.
# [2] = tested on: locomotor hyperactivity, tolerance and dependency induced by morphine; settings: mice; Shin et al. 2003; cited from earlier work
# [3] = tested on: inverse tolerance induced by chronic treatment with morphine; experiment: Inverse tolerance (increased sensitivity) induced by chronic treatment with morphine, locomotor activity
# [4] = tested on: tolerance and abstinence crisis induced by chronic treatment with diazepam; experiment: Elevated zero maze: tolerance and abstinence crisis induced by chronic treatment with diazepam; type: in vivo, rats
# Method: The experiment was performed in an elevated zero maze in accordance with the procedure described by Shepard et al. (Psychopharmacology 116: 56-64, 1994) with minor changes.
# The rat, placed in one of the closed quadrants, had free access to all 4 of the quadrants (2 open and 2 closed) for a period of 5 minutes. A compound with anxiolytic activity produces a percentage increase in the time spent in the free quadrants.
# In the acute studies, the compounds were administered via the s.c. route 30 minutes before the experiment, whereas in the tolerance and “withdrawal” experiments, they were administered via the s.c. route twice a day for 7 days and then retested 40 hours after the end of the chronic treatment.
# memory and learning = settings: various animal models; Garofalo et al. 1996; cited from earlier work
# [5] = substance alone with physiological saline, neboglamine 30 or glycine 300 mg/kg i.p., cocaine 20 or morphine 10 mg/kg s.c., recorded 15 min
# [6] = drug = morphine 10 mg/kg s.c., neboglamine 30 or glycine 300 mg/kg i.p. 30 min before
# [7] = neboglamine 30 or glycine 300 mg/kg i.p. 30 min before morphine 10 mg/kg s.c.
# [8] = neboglamine 30 or glycine 300 mg/kg i.p. 30 min before morphine 10 mg/kg s.c., recorded 15 min
# [9] = chronic morphine 10 mg/kg s.c. x 7 days
# [10] = acute, s.c. 30 min before, diazepam 5 mg/kg, neboglamine 30 mg/kg
# [11] = acute, s.c. 30 min before, diazepam 5 mg/kg, neboglamine 30 mg/kg, 5 min test
# [12] = withdrawal (D-W): diazepam for 7 days, retested 40 hours later with physiological saline
# [13] = neboglamine 30 mg/kg i.p. 30 min before morphine 10 mg/kg s.c., x 7 days
# [14] = neboglamine 30 mg/kg s.c. x 2 (x7 days) + 30 co-administered with chronic diazepam (D-C) + 5 (D), tolerance
# [15] = withdrawal: diazepam and neboglamine for 7 days, retested 40 hours later with physiological saline
compound,measurement,setting,value
"COC(=O)[C@H]1[C@@H](OC(=O)c2ccccc2)C[C@@H]2CC[C@H]1N2C [Cocaine, cocaine, reference compound]",% increase vs. physiological saline,[1]; [5],75.7%
same,Total distance (cm),[1]; [5],5800 cm
"NCC(=O)O [Glycine, glycine, reference compound]","inhibition of morphine-induced locomotor hyperactivity, tolerance and dependency",[2],"capable of inhibiting the locomotor hyperactivity, tolerance and dependency induced by morphine"
same,effect on the spontaneous motility of the animal,[1],do not significantly alter
same,% inhibition vs. the drug (D),[1]; [6],52.5%
same,% inhibition vs. the drug (D),"[1]; drug = morphine 10 mg/kg s.c., neboglamine 30 or glycine 300 mg/kg i.p. 30 min before, listed as G",52.5^(2) %
same,% increase vs. physiological saline,[1]; [7],28.8%
same,Total distance (cm),[1]; [8],4250 cm
same,Total distance (cm),[1]; [5],2900 cm
"CN1CC[C@]23c4c5ccc(O)c4O[C@H]2[C@@H](O)C=C[C@H]3[C@H]1C5 [Morphine, morphine, reference compound]",% increase vs. physiological saline,[3]; [9],128.6%
same,Total distance (cm),[3]; [9],6400 cm
same,increase in the motor activity by chronic treatment compared with the acute effect of the drug,[3]; chronic vs acute morphine 10 mg/kg s.c.,about 50%
same,% increase vs. physiological saline,[1]; [5],60.6%
same,Total distance (cm),[1]; [5],5300 cm
"CN1C(=O)CN=C(c2ccccc2)c2cc(Cl)ccc21 [diazepam, reference compound]",% effect vs. controls (saline),[4]; [10],262.5%
same,Time (seconds) spent in the open quadrants,[4]; [11],105 s
same,Time (seconds) spent in the open quadrants,"[4]; chronic diazepam (D-C) 5 mg/kg s.c. x 2 (x7 days) + 5 (D), tolerance",58 s
same,% effect vs. controls (saline),"[4]; chronic diazepam (D-C) 5 mg/kg s.c. x 2 (x7 days) + 5 (D), tolerance, 5 mg/kg",145%
same,% effect vs. controls (saline),[4]; [12],37.5%
same,Time (seconds) spent in the open quadrants,[4]; [12],15 s
"(S)-4-amino-N-(4,4-dimethylcyclohexyl)glutamic acid [Neboglamine]",promoting memory and learning,memory and learning,advantageous properties of promoting memory and learning
same,% increase vs. physiological saline,[3]; [13],37.5%
same,% inhibition of the hypersensitivity of morphine,[3]; [13],70.8% and 70.8^(1) %
same,Total distance (cm),[3]; [13],3850 cm
same,% increase vs. physiological saline,[1]; 30 mg/kg i.p. 30 min before cocaine 20 mg/kg s.c.,9.1%
same,Total distance (cm),"[1]; 30 mg/kg i.p. 30 min before cocaine 20 mg/kg s.c., recorded 15 min",3600 cm
same,effect on the spontaneous motility of the animal,[1],do not significantly alter
same,% inhibition vs. the drug (D),"[1]; drug = cocaine 20 mg/kg s.c., 30 mg/kg i.p. 30 min before",88%
same,% inhibition vs. the drug (D),"[1]; drug = cocaine 20 mg/kg s.c., 30 mg/kg i.p. 30 min before, listed as N",88.0^(1) %
same,% inhibition vs. the drug (D),[1]; [6],77.5%
same,% inhibition vs. the drug (D),"[1]; drug = morphine 10 mg/kg s.c., neboglamine 30 or glycine 300 mg/kg i.p. 30 min before, listed as N",77.5^(1) %
same,% increase vs. physiological saline,[1]; [7],13.6%
same,Total distance (cm),[1]; [8],3750 cm
same,Total distance (cm),[1]; [5],3150 cm
same,% effect vs. controls (saline),[4]; [10],127%
same,Time (seconds) spent in the open quadrants,[4]; [11],51 s
same,% effect vs. controls (saline),"[4]; acute, s.c. 30 min before, diazepam 5 mg/kg, neboglamine 30 mg/kg, listed as neboglamine",127.0%
same,% effect vs. controls (saline),[4]; [14],192.5%
same,Time (seconds) spent in the open quadrants,[4]; [14],77 s
same,% effect vs. controls (saline),[4]; [15],110.0%
same,Time (seconds) spent in the open quadrants,[4]; [15],44 s
same,% effect vs. controls (saline),"[4]; withdrawal: diazepam and neboglamine for 7 days, retested 40 hours later with physiological saline, listed as neboglamine",110%
